Assay results: patent US8940516B2, “Method for the synthesis of chiral cyanohydrins via a hydroxynitrile lyase from brassicaceae” (Evocatal GmbH, priority 2006, dated 2015)
Where two headings read alike, the source gives them in different places.

T1: AtHNL (Arabidopsis thaliana, UniProt Q9LFT6)
T1 construct: made in house; host or cells: E. coli BL21(DE3), plasmid pAtHNL (pET28a, NcoI/XhoI)
T1 sequence (Q9LFT6 1-258): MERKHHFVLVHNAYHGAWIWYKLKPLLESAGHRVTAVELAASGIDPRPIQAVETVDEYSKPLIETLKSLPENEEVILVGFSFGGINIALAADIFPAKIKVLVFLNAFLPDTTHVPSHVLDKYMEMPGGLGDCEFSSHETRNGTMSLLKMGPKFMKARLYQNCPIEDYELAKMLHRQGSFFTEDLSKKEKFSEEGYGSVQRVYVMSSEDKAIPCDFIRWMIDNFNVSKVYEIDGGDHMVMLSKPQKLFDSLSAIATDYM


Assays:
Assay type in all cases: biochemical
[1] = target: T1, AtHNL
[2] = target: T1, AtHNL; conditions: pH 5
[3] = Point mutations in SEQ ID NO: 1 (AtHNL variants)

Molecule | ee (R) (%) [1] | Transformation (%) ([1]; pH 4) | Transformation (%) [1] | further results
CCC(C)=O [2-butanone] | 0% | >95% | – | –
CCCCCC(C)=O [2-heptanone] | 9% | 9% | – | –
CCCCC(C)=O [2-hexanone] | 0% | – | – | –
CCCCCCC(C)=O [2-octanone] | – | 0% | – | –
CCCC(C)=O [2-pentanone] | 0% | >95% | – | –
O=Cc1cccc(Oc2ccccc2)c1 [3-phenoxybenzaldehyde] | 78% | 73% | – | –
O=Cc1ccc(Cl)cc1 [4-chlorobenzaldehyde] | 95% | 98% | – | –
COc1ccc(C=O)cc1 [4-methoxybenzaldehyde] | – | 22.6% | – | –
CC(O)C#N (stereo not shown) [Acetaldehyde cyanohydrin] | – | – | – | Specify activity (U/mg), HCN-Test (see Ib above) [2]: <0.05 U/mg
O=Cc1ccccc1 [Benzaldehyde] | – | >99.9% | – | –
CC(=O)CCc1ccccc1 [Benzyl acetone] | 40% | 9% | – | –
CCCCCCC=O [Heptanal] | >80% | >99.9% | – | –
CCCCCC=O [Hexanal] | – | 98% | – | –
CCCCCCCC=O [Octanal] | – | 89% | – | –
O=CCc1ccccc1 [Phenylacetaldehyde] | 71% | 90% | – | –
CCC(O)C#N (stereo not shown) [Propionaldehyde cyanohydrin] | – | – | – | Specify activity (U/mg), HCN-Test (see Ib above) [2]: <0.05 U/mg
C=CCc1ccccc1 [compound 17] | 96% | – | 97% | –
O=CCCc1ccccc1 [compound 18] | 68% | – | 99% | –

Molecule | ee (R) (%) [1] | Transformation (%) ([1]; pH 4) | Transformation (%) [1] | further results
O=Cc1cccs1 [compound 19] | – | – | 68% | –
CCCCCC=O [compound 20] | 98% | – | 99% | –
CCCCCCCCCC=O [compound 21] | >95% | – | 56% | –
CCC/C=C/C=O [compound 22] | – | – | 53% | –
CC(=O)CCC=C(C)C [compound 23] | – | – | 0% | –
CCCCC(C)=O [compound 24] | 95% | – | 48% | –
CCCCCCCCC(C)=O [compound 25] | – | – | 2% | –
O=C1CCCCC1 [compound 26] | – | – | 94% | –
CC(=O)c1ccccc1 [compound 27] | – | – | 7% | –
CC(=O)c1ccccc1F [compound 28] | 95% | – | 8% | –
CC(=O)CCc1ccccc1 [compound 29] | – | – | 1% | –
S81A: AtHNL (SEQ ID NO: 1) with point mutation S81A, catalytic triad residue exchanged (protein, listed as Arabidopsis thaliana) MERKHHFVLVHNAYHGAWIWYKLKPLLESAGHRVTAVELAASGIDPRPIQAVETVDEYSKPLIETLKSLPENEEVILVGFAFGGINIALAADIFPAKIKVLVFLNAFLPDTTHVPSHVLDKYMEMPGGLGDCEFSSHETRNGTMSLLKMGPKFMKARLYQNCPIEDYELAKMLHRQGSFFTEDLSKKEKFSEEGYGSVQRVYVMSSEDKAIPCDFIRWMIDNFNVSKVYEIDGGDHMVMLSKPQKLFDSLSAIATDYM | – | – | – | activity of the polypeptide after exchange of catalytic triad residues [3]: no longer exhibited any activity
D208N: AtHNL (SEQ ID NO: 1) with point mutation D208N, catalytic triad residue exchanged (protein, listed as Arabidopsis thaliana) MERKHHFVLVHNAYHGAWIWYKLKPLLESAGHRVTAVELAASGIDPRPIQAVETVDEYSKPLIETLKSLPENEEVILVGFSFGGINIALAADIFPAKIKVLVFLNAFLPDTTHVPSHVLDKYMEMPGGLGDCEFSSHETRNGTMSLLKMGPKFMKARLYQNCPIEDYELAKMLHRQGSFFTEDLSKKEKFSEEGYGSVQRVYVMSSENKAIPCDFIRWMIDNFNVSKVYEIDGGDHMVMLSKPQKLFDSLSAIATDYM | – | – | – | activity of the polypeptide after exchange of catalytic triad residues [3]: no longer exhibited any activity
Y14C: AtHNL (SEQ ID NO: 1) with tyrosine 14 exchanged for cysteine (protein, listed as Arabidopsis thaliana) MERKHHFVLVHNACHGAWIWYKLKPLLESAGHRVTAVELAASGIDPRPIQAVETVDEYSKPLIETLKSLPENEEVILVGFSFGGINIALAADIFPAKIKVLVFLNAFLPDTTHVPSHVLDKYMEMPGGLGDCEFSSHETRNGTMSLLKMGPKFMKARLYQNCPIEDYELAKMLHRQGSFFTEDLSKKEKFSEEGYGSVQRVYVMSSEDKAIPCDFIRWMIDNFNVSKVYEIDGGDHMVMLSKPQKLFDSLSAIATDYM | – | – | – | effect of the point mutation on substrate spectrum / enantioselectivity [3]: reversal of enantioselectivity
H236F: AtHNL (SEQ ID NO: 1) with point mutation H236F, catalytic triad residue exchanged (protein, listed as Arabidopsis thaliana) MERKHHFVLVHNAYHGAWIWYKLKPLLESAGHRVTAVELAASGIDPRPIQAVETVDEYSKPLIETLKSLPENEEVILVGFSFGGINIALAADIFPAKIKVLVFLNAFLPDTTHVPSHVLDKYMEMPGGLGDCEFSSHETRNGTMSLLKMGPKFMKARLYQNCPIEDYELAKMLHRQGSFFTEDLSKKEKFSEEGYGSVQRVYVMSSEDKAIPCDFIRWMIDNFNVSKVYEIDGGDFMVMLSKPQKLFDSLSAIATDYM | – | – | – | activity of the polypeptide after exchange of catalytic triad residues [3]: no longer exhibited any activity
L129W: AtHNL (SEQ ID NO: 1) with leucine 129 exchanged for tryptophan (protein, listed as Arabidopsis thaliana) MERKHHFVLVHNAYHGAWIWYKLKPLLESAGHRVTAVELAASGIDPRPIQAVETVDEYSKPLIETLKSLPENEEVILVGFSFGGINIALAADIFPAKIKVLVFLNAFLPDTTHVPSHVLDKYMEMPGGWGDCEFSSHETRNGTMSLLKMGPKFMKARLYQNCPIEDYELAKMLHRQGSFFTEDLSKKEKFSEEGYGSVQRVYVMSSEDKAIPCDFIRWMIDNFNVSKVYEIDGGDHMVMLSKPQKLFDSLSAIATDYM | – | – | – | effect of the point mutation on substrate spectrum / enantioselectivity [3]: reversal of enantioselectivity
N12T: AtHNL (SEQ ID NO: 1) with asparagine 12 exchanged for threonine, preferably as double mutation with Y14C (protein, listed as Arabidopsis thaliana) MERKHHFVLVHTAYHGAWIWYKLKPLLESAGHRVTAVELAASGIDPRPIQAVETVDEYSKPLIETLKSLPENEEVILVGFSFGGINIALAADIFPAKIKVLVFLNAFLPDTTHVPSHVLDKYMEMPGGLGDCEFSSHETRNGTMSLLKMGPKFMKARLYQNCPIEDYELAKMLHRQGSFFTEDLSKKEKFSEEGYGSVQRVYVMSSEDKAIPCDFIRWMIDNFNVSKVYEIDGGDHMVMLSKPQKLFDSLSAIATDYM | – | – | – | effect of the point mutation on substrate spectrum / enantioselectivity [3]: broadening of substrate spectrum to ketones
